Measured values as given in patent US20150119251A1, “AGRICULTURAL PLANT-PROTECTING AGENTS CONTAINING DIPEPTIDE DERIVATIVE AS ACTIVE INGREDIENT” (REPUBLIC OF KOREA (RURAL DEVELOPMENT ADMINISTRATION), priority 2012, published 2015).
Square brackets hold non-standard residues; d marks the D form. Peptide text beside a SMILES is read from it. * marks the point of attachment. ξ: configuration not given here. Trt = c1ccc(C(c2ccccc2)(c2ccccc2)*)cc1; dIle(3ξ) = CCC(C)[C@@H](N)C(=O)O; Boc = CC(C)(C)OC(=O)*; Bz = O=C(c1ccccc1)*; OBn = c1ccc(CO*)cc1; OtBu = CC(C)(C)O*; OAll = C=CCO*

Columns and labels:
[1] = tested on: tobacco bacterial rot (Pectobacterium carotovorum); assay: Suppression of tobacco bacterial rot; type: in vivo, Pectobacterium carotovorum SCC1
Procedure: A tobacco or cucumber was sown in a plastic pot with a diameter of 10 cm×13 cm, and then, 12 pots were added in a yellow box. After seeding, 100 μL was inoculated to the cotyledons of cucumber or tobacco, in which first leaf was started to come out. The test compounds were dissolved in 20% methanol to make a stock solution, and then, the stock solution was diluted to the concentrations of 1, 10, and 100 ppm.
After 7 days, the pathogen of a plant bacterial rot (Pectobacterium carotovorum SCC1) was cultured in a TSA medium for 27 hours; and then, the cultured pathogen was sprayed in a concentration of 10^8 cfu/mL to the plant leaves, and cultured at 30° C. for 3 days. The plant anthracnose germ (Colletotrichum orbiculare) was cultured in a GBA (Green bean agar) medium to induce spores for about 2 to 3 weeks. The germ was sprayed in a concentration of 10^5 cell/mL and then cultured at 26° C. for 1 day. When fourth or fifth leaf came out, 200 μL of each of the test compounds was inoculated to third leaf. After 7 days, the pathogen of the plant bacterial rot was sprayed to the plant leaves in the concentration of 10^8 cfu/mL, and then cultured at 30° C. for 3 days.
The investigation was performed with naked eyes, and the lesion relative areas were investigated until 0 to 100% according to the shortness degrees of the bacterial rot. The anthracnose was investigated by counting the number of lesions occurred on the leaves.

[2] = tested on: pepper phytophthora blight (Phytopthora capsici); assay: Suppression of pepper phytophthora blight on leaves; type: in vivo; settings: for Lesion outbreak rate: pepper leaves
Procedure: The peppers were raised in the same method as Example 3, and then, the test compounds were dissolved in 20% methanol to make a stock solution, and a stock was diluted to the concentrations of 0.1, 1.0, and 10.0 ppm. The test solutions were sprayed on the leaves or drench-treated on the leaves. After 7 days, the pathogen of plant bacterial rot (Pectobacterium carotovorum SCC1) was cultured in a TSA medium for 27 hours, and then, wetted on an 8 mm diameter paper disc in the concentration of 10^8 cfu/mL. The paper disc was located in the center of the leaves that were cut roundly, and then, after about 7 days, the lesion area was measured. In the case of phytophthora, the potato agar medium cultured with the phytophthora (Phytophthora capsici) was cut in the internal diameter size of 5 mm with a cork borer, and then inoculated to the leaves. After 7 days, the lesion area was observed. In the case of a bacterial rot, when Compounds 6, 89, 93, and 95 were sprayed on the pepper leaves, the bacterial rot was not found in the concentration of 1 or 10 ppm as compared with the non-treated group. […] The Suppression of lesion formation on the leaves when these compounds were drench-treated to the roots can be explained as it was resulted from that systemic disease resistance was induced in the whole plant. These test results are illustrated in the photographs of FIGS. 5 to 9.

| Structure (SMILES) | Lesion outbreak rate ([1]; Table 5, tobacco, 10 ppm) [%] | Lesion outbreak rate ([1]; Table 5, tobacco, 100 ppm) [%] | Lesion outbreak rate ([2]; 0.1 ppm) [area %] | Lesion outbreak rate ([2]; 1.0 ppm) [area %] | further results |
| --- | --- | --- | --- | --- | --- |
| COC(=O)[C@H]1CCCN1C(=O)[C@H](CCCCNC(=O)OC(C)(C)C)NC(=O)OC(C)(C)C [Compound 48] (Boc-Lys(Boc)-[dP]-OMe) | 25 | 50 |  |  |  |
| COC(=O)[C@H]1CCCN1C(=O)[C@@H](NC(=O)OC(C)(C)C)C(C)C [Compound 49] (Boc-Val-[dP]-OMe) | 23 | 0 |  |  |  |
| COC(=O)[C@H]1CCCN1C(=O)[C@H](CCC(=O)OC(C)(C)C)NC(=O)OC(C)(C)C [Compound 50] (Boc-Glu(OtBu)-[dP]-OMe) | 35 | 60 |  |  |  |
| COC(=O)[C@@H]1CCCN1C(=O)[C@@H](C)NC(=O)OC(C)(C)C [Compound 51] (Boc-[dA]-Pro-OMe) | 0 | 68 |  |  |  |
| COC(=O)[C@@H]1CCCN1C(=O)[C@@H](Cc1c[nH]c2ccccc12)NC(=O)OC(C)(C)C [Compound 52] (Boc-[dW]-Pro-OMe) | 0 | 25 |  |  |  |
| COC(=O)[C@@H]1CCCN1C(=O)[C@@H](Cc1ccc(O)cc1)NC(=O)OC(C)(C)C [Compound 53] (Boc-[dY]-Pro-OMe) | 45 | 50 |  |  |  |
| COC(=O)[C@@H]1CCCN1C(=O)[C@@H](CCC(N)=O)NC(=O)OC(C)(C)C [Compound 54] (Boc-[dQ]-Pro-OMe) | 36 | 60 |  |  |  |
| COC(=O)[C@@H]1CCCN1C(=O)[C@H]1CCCN1C(=O)OC(C)(C)C [Compound 55] (Boc-[dP]-Pro-OMe) | 48 | 36 |  |  |  |
| COC(=O)[C@@H]1CCCN1C(=O)[C@H](NC(=O)OC(C)(C)C)C(C)C [Compound 56] (Boc-[dV]-Pro-OMe) | 13 | 40 |  |  |  |
| COC(=O)[C@@H]1CCCN1C(=O)[C@@H](CC(C)C)NC(=O)OC(C)(C)C [Compound 57] (Boc-[dL]-Pro-OMe) | 25 | 25 |  |  |  |
| CCC(C)[C@@H](NC(=O)OC(C)(C)C)C(=O)N1CCC[C@H]1C(=O)OC (stereo partly drawn) [Compound 58] (Boc-[dIle(3ξ)]-Pro-OMe) | 28 | 13 |  |  |  |
| COC(=O)[C@@H]1CCCN1C(=O)[C@@H](Cc1ccccc1)NC(=O)OC(C)(C)C [Compound 59] (Boc-[dF]-Pro-OMe) | 38 | 25 |  |  |  |
| COC(=O)[C@@H]1CCCN1C(=O)[C@@H](CO)NC(=O)OC(C)(C)C [Compound 60] (Boc-[dS]-Pro-OMe) | 18 | 56 |  |  |  |
| COC(=O)[C@@H]1CCCN1C(=O)[C@@H](CCSC)NC(=O)OC(C)(C)C [Compound 63] (Boc-[dM]-Pro-OMe) | 56 | 52 |  |  |  |
| COC(=O)[C@H]1CCCN1C(=O)[C@@H](CO)NC(=O)OC(C)(C)C [Compound 64] (Boc-[dS]-[dP]-OMe) |  |  |  |  | Lesion outbreak rate ([1]; Table 6, tobacco, 1 ppm): 100%; Lesion outbreak rate ([1]; Table 6, tobacco, 10 ppm): 23%; Lesion outbreak rate ([1]; Table 6, tobacco, 100 ppm): 100% |
| COC(=O)[C@H]1CCCN1C(=O)[C@@H](Cc1ccccc1)NC(=O)OC(C)(C)C [Compound 65] (Boc-[dF]-[dP]-OMe) |  |  |  |  | Lesion outbreak rate ([1]; Table 6, tobacco, 1 ppm): 80%; Lesion outbreak rate ([1]; Table 6, tobacco, 10 ppm): 57%; Lesion outbreak rate ([1]; Table 6, tobacco, 100 ppm): 55% |
| COC(=O)[C@H]1CCCN1C(=O)[C@@H](CCSC)NC(=O)OC(C)(C)C [Compound 68] (Boc-[dM]-[dP]-OMe) |  |  |  |  | Lesion outbreak rate ([1]; Table 6, tobacco, 1 ppm): 78%; Lesion outbreak rate ([1]; Table 6, tobacco, 10 ppm): 53%; Lesion outbreak rate ([1]; Table 6, tobacco, 100 ppm): 25% |
| COC(=O)[C@H]1CCCN1C(=O)[C@@H](C)NC(=O)OC(C)(C)C [Compound 70] (Boc-[dA]-[dP]-OMe) |  |  |  |  | Lesion outbreak rate ([1]; Table 6, tobacco, 1 ppm): 80%; Lesion outbreak rate ([1]; Table 6, tobacco, 10 ppm): 72%; Lesion outbreak rate ([1]; Table 6, tobacco, 100 ppm): 77% |
| COC(=O)[C@H]1CCCN1C(=O)[C@@H](Cc1ccc(O)cc1)NC(=O)OC(C)(C)C [Compound 71] (Boc-[dY]-[dP]-OMe) |  |  |  |  | Lesion outbreak rate ([1]; Table 6, tobacco, 1 ppm): 60%; Lesion outbreak rate ([1]; Table 6, tobacco, 10 ppm): 65%; Lesion outbreak rate ([1]; Table 6, tobacco, 100 ppm): 40% |

| Structure (SMILES) | Lesion outbreak rate ([1]; Table 5, tobacco, 10 ppm) [%] | Lesion outbreak rate ([1]; Table 5, tobacco, 100 ppm) [%] | Lesion outbreak rate ([2]; 0.1 ppm) [area %] | Lesion outbreak rate ([2]; 1.0 ppm) [area %] | further results |
| --- | --- | --- | --- | --- | --- |
| COC(=O)[C@H]1CCCN1C(=O)[C@@H](CCC(N)=O)NC(=O)OC(C)(C)C [Compound 72] (Boc-[dQ]-[dP]-OMe) |  |  |  |  | Lesion outbreak rate ([1]; Table 6, tobacco, 1 ppm): 55%; Lesion outbreak rate ([1]; Table 6, tobacco, 10 ppm): 72%; Lesion outbreak rate ([1]; Table 6, tobacco, 100 ppm): 45% |
| COC(=O)[C@H]1CCCN1C(=O)[C@@H](Cc1c[nH]c2ccccc12)NC(=O)OC(C)(C)C [Compound 73] (Boc-[dW]-[dP]-OMe) |  |  |  |  | Lesion outbreak rate ([1]; Table 6, tobacco, 1 ppm): 35%; Lesion outbreak rate ([1]; Table 6, tobacco, 10 ppm): 60%; Lesion outbreak rate ([1]; Table 6, tobacco, 100 ppm): 46% |
| COC(=O)[C@H]1CCCN1C(=O)[C@@H](CC(C)C)NC(=O)OC(C)(C)C [Compound 75] (Boc-[dL]-[dP]-OMe) |  |  |  |  | Lesion outbreak rate ([1]; Table 6, tobacco, 1 ppm): 25%; Lesion outbreak rate ([1]; Table 6, tobacco, 10 ppm): 80%; Lesion outbreak rate ([1]; Table 6, tobacco, 100 ppm): 100% |
| COC(=O)[C@H]1CCCN1C(=O)[C@H](NC(=O)OC(C)(C)C)C(C)C [Compound 76] (Boc-[dV]-[dP]-OMe) |  |  |  |  | Lesion outbreak rate ([1]; Table 6, tobacco, 1 ppm): 46%; Lesion outbreak rate ([1]; Table 6, tobacco, 10 ppm): 41%; Lesion outbreak rate ([1]; Table 6, tobacco, 100 ppm): 37% |
| COC(=O)[C@@H]1CCCN1C(=O)[C@@H](CSC(c1ccccc1)(c1ccccc1)c1ccccc1)NC(=O)OC(C)(C)C [Compound 77] (Boc-[dC](Trt)-Pro-OMe) |  |  | 46 | 36 |  |
| COC(=O)[C@@H]1CCCN1C(=O)[C@H](N)CS [Compound 78] (H-[dC]-Pro-OMe) |  |  | 58 | 47 |  |
| COC(=O)CNC(=O)[C@H](CO)NC(=O)OC(C)(C)C [Compound 81] (Boc-Ser-Gly-OMe) |  |  | 68 | 58 |  |
| CCOC(=O)[C@H](C)NC(=O)CNC(=O)OC(C)(C)C [Compound 82] (Boc-Gly-Ala-OEt) |  |  | 74 | 60 |  |
| CCOC(=O)[C@H](Cc1ccccc1)NC(=O)[C@H](CC(C)C)NC(=O)OC(C)(C)C [Compound 83] (Boc-Leu-Phe-OEt) |  |  | 80 | 57 |  |
| COC(=O)[C@@H]1CCCN1C(=O)[C@H](Cc1c[nH]c2ccccc12)NC(=O)OC(C)(C)C [Compound 84] (Boc-Trp-Pro-OMe) |  |  | 35 | 33 |  |
| COC(=O)[C@@H]1CCCN1C(=O)[C@H](C)NC(=O)OC(C)(C)C [Compound 86] (Boc-Ala-Pro-OMe) |  |  | 58 | 83 |  |
| COC(=O)[C@@H](NC(=O)CNC(=O)OC(C)(C)C)C(C)C [Compound 87] (Boc-Gly-Val-OMe) |  |  | 62 | 36 |  |
| COC(=O)[C@@H](NC(=O)CN)C(C)C [Compound 88] (H-Gly-Val-OMe) |  |  | 35 | 33 |  |
| C=CCOC(=O)C[C@H](NC(=O)OC(C)(C)C)C(=O)N[C@@H](Cc1ccccc1)C(=O)OC [Compound 92] (Boc-Asp(OAll)-Phe-OMe) |  |  | 25 | 38 |  |
| COC(=O)[C@H](Cc1ccccc1)NC(=O)[C@H](CC(=O)OCc1ccccc1)NC(=O)OC(C)(C)C [Compound 94] (Boc-Asp(OBn)-Phe-OMe) |  |  | 12 | 6.8 | Outbreak of the phytophthora blight on the leaves ([2]; drench-treated to the roots): significantly decreased; Lesion formation, pepper phytophthora test ([2]; drench-treated, 1.0 or 10.0 ppm): no the lesion formations |
| COC(=O)C[C@H](NC(C)=O)C(=O)N[C@@H](Cc1ccccc1)C(=O)OC [Compound 96] (Ac-Asp(OMe)-Phe-OMe) |  |  | 32 | 23 |  |
| COC(=O)C[C@H](NC(=O)c1ccccc1)C(=O)N[C@@H](Cc1ccccc1)C(=O)OC [Compound 97] (Bz-Asp(OMe)-Phe-OMe) |  |  | 22 | 25 |  |
| C=CCOC(=O)C[C@H](NC(C)=O)C(=O)N[C@@H](Cc1ccccc1)C(=O)OC [Compound 98] (Ac-Asp(OAll)-Phe-OMe) |  |  | 16 | 12 |  |
| C=CCOC(=O)C[C@H](NC(=O)c1ccccc1)C(=O)N[C@@H](Cc1ccccc1)C(=O)OC [Compound 99] (Bz-Asp(OAll)-Phe-OMe) |  |  | 36 | 18 |  |
